The source of these data is PubChem BioAssay (NCI).

Molecules are shown by their SMILES.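 All cell lines were grown in 96-well plates and treated with compound for 48 hours. GI50 is the concentration that inhibits growth by half. Definition used: TGI = concentration required for complete inhibition of growth.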 A value given as a limit tells only on which side of the number the result lay.

Experiment in all cases: inhibition of tumour cell growth, NCI panel, 48 h
Test [1] has as its system HOP-92 NSCLC.
In test [2] the test system is DU-145 prostate.
Test [3] deals with MOLT-4 leukemia.
In test [4] the test system is HT29 colon.
The test system of test [5] is IGROV1 ovarian.
Test [6] relates to A549 NSCLC.
Test [7] has as its system 786-0 renal.
The test system of test [8] is SK-MEL-2 melanoma.
In test [9] the test system is HL-60(TB) leukemia.
In test [10] the test system is SK-MEL-5 melanoma.

`N#Cc1ccsc1NC(=O)COC(=O)c1cccc(S(=O)(=O)N2CCc3ccccc32)c1`: the GI50 in test [1] was 40.1 µM; in test [2] it was 33.7 µM; in [3] it was 6.68 µM; in [4] it was 14.5 µM; in test [5], 7.84 µM; in [6], 45.2 µM. In addition, the GI50 in [7] was 47.3 µM; in test [8], above 100 µM; in [9], 37.9 µM; in test [10], 21.1 µM. The TGI in test [1], in test [2], in test [3], in test [4], in test [5] and in [6] was above 100 µM in each case. In addition, the TGI in test [7], in [8], in test [9] and in test [10] was above 100 µM each time.

`Cn1c2ccccc2c(=O)c2c(O)cc3c(c21)CC(C1(C)CO1)O3` (stereo not given): the TGI in test [1] was 30.8 µM; in test [2], 36.1 µM; in test [3], 1.45 µM; in [4], 20 µM; in test [5], 26.9 µM; in [6], 28.2 µM. Besides, the TGI in test [7] came out at 5.06 µM; in [8], 2.32 µM; in test [9], 2.32 µM; in [10], 3.88 µM.

As for `COc1cc2oc(-c3ccc(O)cc3O)c(CC=C(C)C)c(=O)c2c(O)c1/C=C/C(C)C`, the TGI came to 7.3 µM in test [1]; 11 µM in test [2]; 5.24 µM in [3]; 5.74 µM in test [4]; 12 µM in test [5]; 7.75 µM in [6]. For the same molecule, the TGI worked out at 4.53 µM in test [7], 17.9 µM in test [8], 5.59 µM in test [9] and 3.06 µM in [10].

For the molecule `NC1CCC(Nc2nc(NCc3cc(Cl)ccc3O)c3ncn(C4CCCC4)c3n2)CC1` (stereo not given), the GI50 was 0.163 µM in [1]; 0.207 µM in [2]; 0.133 µM in test [3]; 0.22 µM in test [4]; 0.204 µM in test [5]; 0.193 µM in test [6]. For the same molecule, the GI50 in test [7] is 0.211 µM; in test [8], 0.188 µM; in test [9] it was 0.165 µM; in test [10], 0.175 µM. The TGI in test [1] stood at 0.63 µM; in test [2] it was 1.02 µM; in [3], 0.492 µM; in [4] it was 0.755 µM; in test [5], 0.771 µM; in test [6], 0.713 µM. Moreover, the TGI turned out to be 0.624 µM in [7], 0.356 µM in [8], 0.388 µM in test [9] and 0.325 µM in test [10].

With `Cc1ccc(/C=C/C(=N/N=C(N)N)c2ccccc2)cc1`, the GI50 in [1] was 2.25 µM; in test [2] it was 3.33 µM; in [3], 3.01 µM; in [4], 2.53 µM; in test [5] it was 6.36 µM; in test [6] it was 3.46 µM. Besides, the GI50 was 2.41 µM in [7], 2.75 µM in test [8], 2.28 µM in test [9] and 1.69 µM in [10]. Besides, the TGI in test [1] was found to be 8.42 µM; in [2], 10.8 µM; in test [3], 9.1 µM; in test [4], 7.59 µM; in [5], 23.1 µM; in test [6] it was 12.5 µM. The TGI in [7] amounted to 6.53 µM; in test [8] it was 8.04 µM; in test [9], 4.75 µM; in test [10], 3.86 µM.

`CCCCCCCCCCC/C=C\C[C@H](O)C/C=C1/C(=O)C=C[C@@H]1C/C=C\CCCC(=O)OC`: the GI50 in [1] was 5.43 µM; in [2], 1.35 µM; in test [3] it was 0.838 µM; in test [4], 1.03 µM; in [5], 0.742 µM; in test [6], 5.96 µM. The GI50 in test [7] is 1.03 µM; in [8] it was 1.46 µM; in test [9], 0.835 µM; in [10], 0.603 µM. Moreover, the TGI in [1] was determined as 11.9 µM; in test [2], 5.57 µM; in [3] it was 2.71 µM; in test [4], 2.85 µM; in [5], 2.66 µM; in test [6], 33.3 µM. In addition, the TGI was 3.98 µM in test [7], 5.67 µM in [8], 2.68 µM in test [9] and 1.17 µM in test [10].

For the molecule `c1ccc(Nc2nc(-c3ccccn3)cs2)nc1`, the GI50 in [1] was 2.49 µM; in test [2], 0.65 µM; in test [3] it was 0.301 µM; in test [4], 0.603 µM; in test [5] it was 0.464 µM; in test [6] it was 0.623 µM. For the same molecule, the GI50 was 0.344 µM in test [7], 0.442 µM in test [8], 0.392 µM in test [9] and 0.355 µM in test [10]. Further, the TGI in test [1] is above 56.5 µM; in test [2], above 100 µM; in test [3] it was above 27.2 µM; in test [4], 21.1 µM; in test [5] it was 5.8 µM; in test [6], above 35 µM. Further, the TGI was above 38.2 µM in test [7], 30.4 µM in test [8], 3.01 µM in test [9] and 6.17 µM in test [10].

For `O=C1C=CC(=Nc2ccccc2)c2ccccc21`, the TGI in [1] stood at 28.4 µM; in test [2] it was 3.14 µM; in test [3] it was 36.2 µM; in [4], 34.3 µM; in [5], 23.2 µM; in test [6], 31 µM. Moreover, the TGI in test [7] was found to be 24.7 µM; in test [8], 8.15 µM; in test [9], 21.7 µM; in test [10], 2.6 µM.

Turning to `CC[C@@H](C(=O)[C@H](C)[C@H](O)[C@@H](C)[C@H]1O[C@H]([C@@H](CC)C(=O)O)CC[C@H]1C)C1O[C@]2(C=C[C@@H](O)[C@]3(CC[C@@](C)([C@H]4CC[C@](O)(CC)[C@H](C)O4)O3)O2)[C@H](C)C[C@@H]1C` (stereo not given in full), the GI50 in test [1] is 0.69 µM; in [2], 1.06 µM; in [3] it was 1.26 µM; in test [4] it was 0.357 µM; in test [5], 2.07 µM; in [6], 0.267 µM. The GI50 is 1.26 µM in test [7], 1.27 µM in test [8], 0.06 µM in test [9] and 0.102 µM in test [10]. For the same molecule, the TGI in [1] is 5.78 µM; in test [2], 29.3 µM; in test [3], 4.75 µM; in test [4], 30.2 µM; in [5] it was above 100 µM; in test [6] it was 21.6 µM. In addition, the TGI in test [7] came to 21.2 µM; in test [8], 4.5 µM; in test [9] it was 0.506 µM; in test [10], 0.274 µM.

On to `CCC(CCC(C)C1CCC2C3CC=C4CC(OC5OC(CO)C(O)C(O)C5O)CCC4(C)C3CCC12C)C(C)C` (stereo not given), for which the TGI in [1], in [2], in test [3], in [4], in [5] and in test [6] was above 100 µM each time. Moreover, the TGI in test [7], in [8], in [9] and in [10] was above 100 µM each time.

On to `COc1ccc2c(Cc3c4ccccc4cc4ccccc34)cncc2c1O`, for which the TGI in test [1] was 13.2 µM; in [2], above 22.4 µM; in [3], 8.82 µM; in test [4] it was 33.5 µM; in test [5] it was 11 µM; in test [6], above 39.8 µM. Moreover, the TGI was 23.4 µM in [7], 17.5 µM in test [8], 8.36 µM in test [9] and 3.05 µM in [10].

For the molecule `CN1CC[C@]2(c3cccc(O)c3)CC(=O)/C(=C/c3ccccc3)[C@H]1C2`, the TGI in test [1] worked out at 7.92 µM; in [2], 11.3 µM; in test [3], 6.96 µM; in [4] it was 12.4 µM; in test [5], 12.6 µM; in [6] it was 11.1 µM. In addition, the TGI in [7] came out at 10.1 µM; in [8], 12.6 µM; in [9], 5.45 µM; in [10], 9.35 µM. Moreover, the GI50 in test [2] is 3.14 µM; in test [4], 3.59 µM; in [5] it was 3.38 µM; in test [7], 3.21 µM; in test [8] it was 3.28 µM.

Regarding `COc1cc(/C=C2\Oc3cc(OCCCN4CCCC4)ccc3C2=O)cc(OC)c1`, the GI50 in test [1] is 3.2 µM; in [2], 3.68 µM; in test [3], 2.59 µM; in test [4] it was 2.8 µM; in test [5], 4.4 µM; in [6], 3.44 µM. Also, the GI50 in [7] is 3.86 µM; in test [8], 14.7 µM; in test [9], 2.6 µM; in [10], 2 µM. Moreover, the TGI in [1] amounted to 16.8 µM; in test [2], 12.8 µM; in test [3] it was 9.19 µM; in [4], 8.69 µM; in test [5] it was 16.9 µM; in test [6], 14.8 µM. The TGI turned out to be 14.5 µM in test [7], 30.2 µM in test [8], 6.66 µM in test [9] and 4.6 µM in [10].
